In ChEMBL document CHEMBL4665814, “Structurally Diverse Labdane Diterpenoids from Leonurus japonicus and Their Anti-inflammatory Properties in LPS-Induced RAW264.7 Cells” (J Nat Prod, 2020):
Activity calls are given as the source filed them. The rule behind the calls is not given here.

Tests used:
[1] = tested on: RAW264.7; assay: Anti-inflammatory activity in mouse RAW264.7 cells assessed as inhibition of LPS-induced NO production preincubated for 2 hrs followed by LPS addition and measured after 18 hrs by Griess reagent-based assay; assay type: functional, cell-based
[2] = tested on: RAW264.7; assay: Cytotoxicity against mouse RAW264.7 cells assessed as reduction in cell viability at 3.1 to 25 uM after 48 hrs by MTT assay; assay type: cell-based; conditions: raw264.7, 48 h, dose 3.1-25 µM
[3] = tested on: RAW264.7; assay: Anti-inflammatory activity in mouse RAW264.7 cells assessed as inhibition of LPS-induced COX-2 level after 16 hrs by Western blot analysis; assay type: functional, cell-based
[4] = biological target: T1, Inhibitor of nuclear factor kappa-B kinase subunit beta (Mus musculus) (UniProt O88351); assay: Inhibition of IKKbeta in mouse RAW264.7 cells assessed as inhibition of LPS-induced IKK-beta phosphorylation level after 16 hrs by Western blot analysis; assay type: cell-based
T1 sequence (whole entry): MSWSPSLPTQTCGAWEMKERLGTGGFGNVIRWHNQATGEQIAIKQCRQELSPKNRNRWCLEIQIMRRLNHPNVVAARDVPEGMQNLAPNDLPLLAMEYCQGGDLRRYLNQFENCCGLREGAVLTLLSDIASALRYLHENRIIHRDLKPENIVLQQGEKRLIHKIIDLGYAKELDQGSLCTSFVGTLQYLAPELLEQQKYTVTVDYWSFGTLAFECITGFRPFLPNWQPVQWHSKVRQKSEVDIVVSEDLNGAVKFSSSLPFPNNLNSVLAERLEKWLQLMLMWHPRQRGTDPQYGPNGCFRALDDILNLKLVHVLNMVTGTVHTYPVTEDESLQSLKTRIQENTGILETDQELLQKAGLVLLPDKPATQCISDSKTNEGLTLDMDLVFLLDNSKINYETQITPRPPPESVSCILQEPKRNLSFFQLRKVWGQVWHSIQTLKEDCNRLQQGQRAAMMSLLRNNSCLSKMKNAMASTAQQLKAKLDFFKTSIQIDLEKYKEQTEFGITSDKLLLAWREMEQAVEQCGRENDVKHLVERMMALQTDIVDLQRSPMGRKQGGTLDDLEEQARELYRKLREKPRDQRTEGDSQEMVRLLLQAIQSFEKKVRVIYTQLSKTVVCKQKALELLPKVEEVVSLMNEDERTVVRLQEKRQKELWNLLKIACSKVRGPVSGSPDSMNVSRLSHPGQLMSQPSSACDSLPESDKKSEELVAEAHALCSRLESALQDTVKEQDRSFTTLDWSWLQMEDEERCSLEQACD

[5] = tested on: RAW264.7; assay: Anti-inflammatory activity in mouse RAW264.7 cells assessed as inhibition of LPS-induced IL-6 level after 24 hrs by ELISA; assay type: functional, cell-based
[6] = tested on: RAW264.7; assay: Anti-inflammatory activity in mouse RAW264.7 cells assessed as inhibition of LPS-induced TNF-alpha level after 24 hrs by ELISA; assay type: functional, cell-based
[7] = biological target: T2, Inhibitor of nuclear factor kappa-B kinase subunit alpha (Mus musculus) (UniProt Q60680); assay: Inhibition of IKKalpha in mouse RAW264.7 cells assessed as inhibition of LPS-induced IKK-alpha phosphorylation level after 16 hrs by Western blot analysis; assay type: cell-based
T2 sequence (whole entry): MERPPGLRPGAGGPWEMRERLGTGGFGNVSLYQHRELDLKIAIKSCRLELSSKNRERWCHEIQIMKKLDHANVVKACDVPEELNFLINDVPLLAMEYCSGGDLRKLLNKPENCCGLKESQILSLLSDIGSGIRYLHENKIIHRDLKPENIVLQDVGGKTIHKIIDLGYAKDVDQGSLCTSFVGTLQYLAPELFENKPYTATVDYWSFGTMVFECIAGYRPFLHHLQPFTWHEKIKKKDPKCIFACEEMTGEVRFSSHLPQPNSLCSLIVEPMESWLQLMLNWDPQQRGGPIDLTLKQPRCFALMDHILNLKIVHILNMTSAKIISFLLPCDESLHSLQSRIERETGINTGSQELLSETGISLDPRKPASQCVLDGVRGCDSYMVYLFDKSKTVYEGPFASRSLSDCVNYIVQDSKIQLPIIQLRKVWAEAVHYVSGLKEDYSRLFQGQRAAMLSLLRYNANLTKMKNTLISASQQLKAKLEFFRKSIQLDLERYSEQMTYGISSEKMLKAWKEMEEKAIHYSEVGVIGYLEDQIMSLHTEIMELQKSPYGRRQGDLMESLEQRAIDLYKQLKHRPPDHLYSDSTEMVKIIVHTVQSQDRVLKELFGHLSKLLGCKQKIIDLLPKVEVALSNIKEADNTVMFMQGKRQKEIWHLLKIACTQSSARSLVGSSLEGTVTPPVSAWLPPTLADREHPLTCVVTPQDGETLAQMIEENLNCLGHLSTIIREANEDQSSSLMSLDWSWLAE

[8] = tested on: RAW264.7; assay: Anti-inflammatory activity in mouse RAW264.7 cells assessed as inhibition of LPS-induced iNOS level after 16 hrs by Western blot analysis; assay type: functional, cell-based
[9] = tested on: RAW264.7; assay: Anti-inflammatory activity in mouse RAW264.7 cells assessed as inhibition of LPS-induced IL-1beta level after 24 hrs by ELISA; assay type: functional, cell-based

Structure (SMILES)	IC50 [1]	also measured
CO[C@@H]1C=C(CCC2=C(C)C(=O)C(O)=C3C(C)(C)C(=O)CC[C@]23C)C(=O)O1	> 50 µM	
CC(=O)O[C@@H]1CC[C@@]2(C)[C@@H](C(=O)[C@H](O)[C@@H](C)[C@]2(O)CCc2ccoc2)C1(C)C	> 50 µM	
CC1=C(CCc2ccoc2)[C@@]2(C)CCC(=O)C(C)(C)C2=C(O)C1=O	> 50 µM	
CC1=C(CCc2ccoc2)[C@@]2(C)CC[C@@H](O)C(C)(C)[C@@H]2[C@H](O)C1=O	> 50 µM	
CC1=CC[C@H]2[C@@](C)(CO)CCC[C@]2(C)[C@H]1CC/C(C)=C/CO	33.4 µM	
CCC(=O)[C@H]1O[C@@](CCc2ccoc2)(OC)[C@@]2(C)CCCC(C)(C)[C@H]12	> 50 µM	
CCC(=O)C1O[C@](O)(CCc2ccoc2)[C@@]2(C)CCCC(C)(C)[C@H]12 (single isomer, unassigned)	> 50 µM	
CCOC1CC(O)(CCC2=C(C)C(=O)C(O)=C3C(C)(C)C(=O)CC[C@]23C)CO1 (stereo partly specified)	22.9 µM	
C=C1CC[C@H]2C(C)(C)CCC[C@]2(C)[C@H]1CC/C(C)=C/CO	33.4 µM	
CCC(=O)[C@H]1O/C(=C\Cc2ccoc2)[C@@]2(C)CCCC(C)(C)[C@H]12	> 50 µM	
CC1=CC[C@@H]2[C@](C)(CCC[C@]2(C)C(=O)O)[C@H]1CC/C(C)=C/CO	41.1 µM	
CC1=C(CCc2ccoc2)[C@@]2(C)CCC(=O)C(C)(C)[C@@H]2[C@@H](O)C1=O	> 50 µM	
CC(=O)O[C@@H]1CC[C@]2(C)C(CCc3ccoc3)=C(C)C(=O)[C@@H](O)[C@H]2C1(C)C	22.5 µM	
CO[C@H]1C=C(CCC2=C(C)C(=O)C(O)=C3C(C)(C)C(=O)CC[C@]23C)C(=O)O1	> 50 µM	
CCOC1CC(O)(CCC2=C(C)C(=O)[C@@H](O)[C@H]3C(C)(C)CCC[C@]23C)CO1 (stereo partly specified)	> 50 µM	
CC1=CC[C@@H]2[C@](C)(CCC[C@]2(C)C=O)[C@H]1CC/C(C)=C/CO	29 µM	
CCC(=O)[C@H]1O[C@@](CCC2=CC(OC)OC2=O)(OC)[C@@]2(C)CC[C@@H](OC(C)=O)C(C)(C)[C@H]12 (stereo partly specified)	> 50 µM	
C[C@H]1C(=O)[C@@H](O)[C@H]2C(C)(C)C(=O)CC[C@]2(C)[C@@]1(O)CCc1ccoc1	> 50 µM	
COC1C=C(CCC2=C(C)C(=O)[C@@H](O)[C@H]3C(C)(C)[C@H](O)CC[C@]23C)C(=O)O1 (stereo partly specified)	27.5 µM	

Structure (SMILES)	IC50 [1]	also measured
COC(OC)[C@@]1(C)CCC[C@@]2(C)[C@H]1CC=C(C)[C@@H]2CC/C(C)=C/CO	> 50 µM	
COC1CC(O)(CCC2=C(C)C(=O)[C@@H](O)[C@H]3C(C)(C)CCC[C@]23C)CO1 (stereo partly specified)	26.4 µM	
CC1=CC[C@H]2C(C)(C)CCC[C@]2(C)[C@H]1CC/C(C)=C/CO	20 µM	
CCC(O)C(=O)[C@H]1C(C)(C)CCC[C@]1(C)C(=O)CCC1=CCOC1=O (stereo partly specified)	> 50 µM	
COC1C=C(CC[C@@]2(O)[C@H](C)C(=O)[C@@H](O)[C@H]3C(C)(C)CCC[C@@]32C)C(=O)O1 (stereo partly specified)	24.7 µM	
CCC(O)C(=O)[C@H]1C(C)(C)C(=O)CC[C@]1(C)C(=O)CCc1ccoc1 (stereo partly specified)	> 50 µM	
CCOC1CC(O)(CCC2=C(C)C(=O)[C@@H](O)[C@H]3C(C)(C)[C@H](OC(C)=O)CC[C@]23C)CO1 (stereo partly specified)	30.4 µM	
CCC(=O)[C@H]1O[C@@](CCC2=CCOC2=O)(OC)[C@@]2(C)CCCC(C)(C)[C@H]12	21.9 µM	
CCOC1CC(O)(CCC2=C(C)C(=O)C(O)=C3C(C)(C)[C@H](OC(C)=O)CC[C@]23C)CO1 (stereo partly specified)	21.7 µM	
CC1=C(CCc2ccoc2)[C@@]2(C)CCCC(C)(C)[C@@H]2[C@H](O)C1=O	> 50 µM	
CC(=O)O[C@@H]1CC[C@]2(C)C(CCC3=CCOC3=O)=C(C)C(=O)[C@@H](O)[C@H]2C1(C)C	> 50 µM	
CCC(=O)[C@H]1O[C@](O)(CCC2=CC(OC)OC2=O)[C@@]2(C)CCCC(C)(C)[C@H]12 (stereo partly specified)	15.7 µM	
CC1=C(CCc2ccoc2)[C@@]2(C)CCCC(C)(C)C2=C(O)C1=O	46.1 µM	
C[C@@H]1[C@@H](O)C(=O)[C@H]2C(C)(C)CCC[C@]2(C)[C@@]1(O)CCc1ccoc1	> 50 µM	
COC1C=C(CCC2=C(C)C(=O)C(O)=C3C(C)(C)[C@H](OC(C)=O)CC[C@]23C)C(=O)O1 (stereo partly specified)	40.8 µM	
CCC(=O)[C@H]1O[C@@](CCC2=CC(OC)OC2=O)(OC)[C@@]2(C)CCCC(C)(C)[C@H]12 (stereo partly specified)	3.9 µM	Activity [2]: Non-Toxic; inhibition [3]: Active; inhibition [4]: Active; inhibition [5]: Dose-dependent effect; inhibition [6]: Dose-dependent effect; inhibition [7]: Active; inhibition [8]: Active; inhibition [9]: Dose-dependent effect
CC1=C(CCC2=CCOC2=O)[C@@]2(C)CCCC(C)(C)[C@@H]2CC1=O	43.9 µM	
C[C@@H]1C(=O)C(O)=C2C(C)(C)C(=O)CC[C@]2(C)[C@@]1(O)CCc1ccoc1	> 50 µM	
C[C@@H]1C[C@H]2[C@@H]3CCC4=CC(=O)C=C[C@]4(C)[C@@]3(F)[C@@H](O)C[C@]2(C)[C@@]1(O)C(=O)CO [DEXAMETHASONE]	24.3 µM	
